Data as given in PubChem BioAssay (NCI).
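Where inhibition never reached the appropriate level, the endpoint shown equals the highest concentration tested. Otherwise, values were interpolated linearly from a five-concentration, 48-hour dose response in 96-well plates. GI50 marks 50% less growth. TGI marks complete inhibition of growth.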

Legend:
Assay in all cases: NCI-60 cell line screen, 48 h
786-0 renal = system: 786-0 renal
A498 renal = system: A498 renal
A549 NSCLC = system: A549 NSCLC
ACHN renal = system: ACHN renal
BT-549 breast = system: BT-549 breast
CAKI-1 renal = system: CAKI-1 renal
COLO 205 colon = system: COLO 205 colon
DU-145 prostate = system: DU-145 prostate
EKVX NSCLC = system: EKVX NSCLC
HCC-2998 colon = system: HCC-2998 colon
HCT-116 colon = system: HCT-116 colon
HCT-15 colon = system: HCT-15 colon
HL-60(TB) leukemia = system: HL-60(TB) leukemia
HOP-62 NSCLC = system: HOP-62 NSCLC
HOP-92 NSCLC = system: HOP-92 NSCLC
HS 578T breast = system: HS 578T breast
HT29 colon = system: HT29 colon
IGROV1 ovarian = system: IGROV1 ovarian
K-562 leukemia = system: K-562 leukemia
KM12 colon = system: KM12 colon
LOX IMVI melanoma = system: LOX IMVI melanoma
M14 melanoma = system: M14 melanoma
MALME-3M melanoma = system: MALME-3M melanoma
MCF7 breast = system: MCF7 breast
MDA-MB-231 breast = system: MDA-MB-231 breast
MDA-MB-435 = system: MDA-MB-435
MOLT-4 leukemia = system: MOLT-4 leukemia
NCI-H226 lung = system: NCI-H226 lung
NCI-H23 lung = system: NCI-H23 lung
NCI-H460 lung = system: NCI-H460 lung
NCI-H522 lung = system: NCI-H522 lung
NCI/ADR-RES ovarian = system: NCI/ADR-RES ovarian
OVCAR-3 ovarian = system: OVCAR-3 ovarian
OVCAR-4 ovarian = system: OVCAR-4 ovarian
OVCAR-5 ovarian = system: OVCAR-5 ovarian
OVCAR-8 ovarian = system: OVCAR-8 ovarian
RPMI-8226 leukemia = system: RPMI-8226 leukemia
RXF 393 renal = system: RXF 393 renal
SF-268 CNS = system: SF-268 CNS
SF-295 CNS = system: SF-295 CNS
SF-539 CNS = system: SF-539 CNS
SK-MEL-2 melanoma = system: SK-MEL-2 melanoma
SK-MEL-28 melanoma = system: SK-MEL-28 melanoma
SK-MEL-5 melanoma = system: SK-MEL-5 melanoma
SK-OV-3 ovarian = system: SK-OV-3 ovarian
SN12C renal = system: SN12C renal
SNB-19 CNS = system: SNB-19 CNS
SNB-75 CNS = system: SNB-75 CNS
SR leukemia = system: SR leukemia
SW-620 colon = system: SW-620 colon
T-47D breast = system: T-47D breast
TK-10 renal = system: TK-10 renal
U251 CNS = system: U251 CNS
UACC-257 melanoma = system: UACC-257 melanoma
UO-31 renal = system: UO-31 renal

`CC(C)=C[C@@H]1C[C@H](C)[C@H]2CC[C@H](C)c3c(O)c(OC4OCC(O)C(O)C4O)c(C)c1c32` (stereo not given in full) was tested, and the GI50 (786-0 renal) was 17.9 µM, the TGI (786-0 renal) was 34.8 µM and the GI50 (A498 renal) was 13.4 µM. It also gave a TGI (A498 renal) of 27.5 µM, a GI50 (A549 NSCLC) of 10.3 µM and a TGI (A549 NSCLC) of 22.7 µM. It also gave a GI50 (ACHN renal) of 14.6 µM, a TGI (ACHN renal) of 27.8 µM and a GI50 (BT-549 breast) of 21.6 µM. It also gave a TGI (BT-549 breast) of 39.9 µM, a GI50 (CAKI-1 renal) of 3.91 µM and a TGI (CAKI-1 renal) of 18.7 µM. It also gave a GI50 (COLO 205 colon) of 15.5 µM, a TGI (COLO 205 colon) of 29.7 µM and a GI50 (DU-145 prostate) of 11.8 µM. It also gave a TGI (DU-145 prostate) of 24 µM, a GI50 (EKVX NSCLC) of 18.8 µM and a TGI (EKVX NSCLC) of 33.3 µM. For the same compound, the GI50 (HCC-2998 colon) was 4.43 µM, the TGI (HCC-2998 colon) was 19.8 µM and the GI50 (HCT-116 colon) was 13.9 µM. The TGI (HCT-116 colon) was 28.4 µM, the GI50 (HCT-15 colon) was 14 µM and the TGI (HCT-15 colon) was 26.9 µM. It also gave a GI50 (HL-60(TB) leukemia) of 10.9 µM, a TGI (HL-60(TB) leukemia) of 24.5 µM and a GI50 (HOP-62 NSCLC) of 18.2 µM. For the same compound, the TGI (HOP-62 NSCLC) was 33.6 µM, the GI50 (HOP-92 NSCLC) was 12.3 µM and the TGI (HOP-92 NSCLC) was 24.7 µM. The GI50 (HS 578T breast) was 15.4 µM, the TGI (HS 578T breast) was 32.1 µM and the GI50 (HT29 colon) was 11.7 µM. It also gave a TGI (HT29 colon) of 24.7 µM, a GI50 (IGROV1 ovarian) of 12 µM and a TGI (IGROV1 ovarian) of 24.3 µM. It also gave a GI50 (K-562 leukemia) of 5.73 µM, a TGI (K-562 leukemia) of 20.5 µM and a GI50 (KM12 colon) of 12.7 µM. For the same compound, the TGI (KM12 colon) was 25.3 µM, the GI50 (LOX IMVI melanoma) was 15 µM and the TGI (LOX IMVI melanoma) was 28.2 µM. It also gave a GI50 (M14 melanoma) of 15.8 µM, a TGI (M14 melanoma) of 39.3 µM and a GI50 (MALME-3M melanoma) of 14.1 µM. It also gave a TGI (MALME-3M melanoma) of 27.6 µM, a GI50 (MCF7 breast) of 13.1 µM and a TGI (MCF7 breast) of 25.8 µM. For the same compound, the GI50 (MDA-MB-231 breast) was 13.5 µM, the TGI (MDA-MB-231 breast) was 26.3 µM and the GI50 (MDA-MB-435) was 11.4 µM. For the same compound, the TGI (MDA-MB-435) was 24.3 µM, the GI50 (MOLT-4 leukemia) was 5.24 µM and the TGI (MOLT-4 leukemia) was 19.7 µM. The GI50 (NCI-H226 lung) was 15.8 µM, the TGI (NCI-H226 lung) was 30.6 µM and the GI50 (NCI-H23 lung) was 12.8 µM. It also gave a TGI (NCI-H23 lung) of 25.5 µM, a GI50 (NCI-H460 lung) of 12.3 µM and a TGI (NCI-H460 lung) of 24.7 µM. The GI50 (NCI-H522 lung) was 16.4 µM, the TGI (NCI-H522 lung) was 30.2 µM and the GI50 (NCI/ADR-RES ovarian) was 10.2 µM. The TGI (NCI/ADR-RES ovarian) was 21.9 µM, the GI50 (OVCAR-3 ovarian) was 11.9 µM and the TGI (OVCAR-3 ovarian) was 24.3 µM. The GI50 (OVCAR-4 ovarian) was 9.39 µM, the TGI (OVCAR-4 ovarian) was 22.1 µM and the GI50 (OVCAR-5 ovarian) was 12.6 µM. The TGI (OVCAR-5 ovarian) was 25.2 µM, the GI50 (OVCAR-8 ovarian) was 16.6 µM and the TGI (OVCAR-8 ovarian) was 33 µM. It also gave a GI50 (RPMI-8226 leukemia) of 10.8 µM, a TGI (RPMI-8226 leukemia) of 22.9 µM and a GI50 (RXF 393 renal) of 10.9 µM. For the same compound, the TGI (RXF 393 renal) was 23.4 µM, the GI50 (SF-268 CNS) was 12.4 µM and the TGI (SF-268 CNS) was 24.9 µM. For the same compound, the GI50 (SF-295 CNS) was 14.2 µM, the TGI (SF-295 CNS) was 29.3 µM and the GI50 (SF-539 CNS) was 18.7 µM. The TGI (SF-539 CNS) was 34.6 µM, the GI50 (SK-MEL-2 melanoma) was 20.8 µM and the TGI (SK-MEL-2 melanoma) was 36.4 µM. For the same compound, the GI50 (SK-MEL-28 melanoma) was 14.4 µM, the TGI (SK-MEL-28 melanoma) was 27.7 µM and the GI50 (SK-MEL-5 melanoma) was 12.3 µM. It also gave a TGI (SK-MEL-5 melanoma) of 25 µM, a GI50 (SK-OV-3 ovarian) of 18.9 µM and a TGI (SK-OV-3 ovarian) of 33.2 µM. It also gave a GI50 (SN12C renal) of 10.2 µM, a TGI (SN12C renal) of 21.8 µM and a GI50 (SNB-19 CNS) of 16.2 µM. For the same compound, the TGI (SNB-19 CNS) was 29.8 µM, the GI50 (SNB-75 CNS) was 12.7 µM and the TGI (SNB-75 CNS) was 25.9 µM. The GI50 (SR leukemia) was 6.92 µM, the TGI (SR leukemia) was 20.5 µM and the GI50 (SW-620 colon) was 15.9 µM. It also gave a TGI (SW-620 colon) of 29.3 µM, a GI50 (T-47D breast) of 13.3 µM and a TGI (T-47D breast) of 28.1 µM. It also gave a GI50 (TK-10 renal) of 15.4 µM, a TGI (TK-10 renal) of 28.9 µM and a GI50 (U251 CNS) of 16.1 µM. For the same compound, the TGI (U251 CNS) was 29.6 µM, the GI50 (UACC-257 melanoma) was 6.44 µM and the TGI (UACC-257 melanoma) was 19.7 µM. It also gave a GI50 (UO-31 renal) of 17.8 µM and a TGI (UO-31 renal) of 31.6 µM.
